Measured values published in PubChem BioAssay (NCI).
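96-well plates; 48 h exposure; 5 concentrations. Endpoints by linear interpolation between flanking doses. Not reached: highest tested concentration assigned. TGI: concentration producing complete growth inhibition.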

Assays:
Experiment in all cases: NCI tumour cell line growth inhibition, 48 h
M14 melanoma = tested on: M14 melanoma
SF-539 CNS = tested on: SF-539 CNS
SN12C renal = tested on: SN12C renal
LXFL 529 NSCLC = tested on: LXFL 529 NSCLC
DMS 273 small cell lung = tested on: DMS 273 small cell lung
DLD-1 colon = tested on: DLD-1 colon
HCT-116 colon = tested on: HCT-116 colon
NCI-H23 lung = tested on: NCI-H23 lung
NCI-H226 lung = tested on: NCI-H226 lung
SNB-78 CNS = tested on: SNB-78 CNS
SR leukemia = tested on: SR leukemia
NCI-H460 lung = tested on: NCI-H460 lung
MALME-3M melanoma = tested on: MALME-3M melanoma
IGROV1 ovarian = tested on: IGROV1 ovarian
SNB-19 CNS = tested on: SNB-19 CNS
COLO 205 colon = tested on: COLO 205 colon
KM20L2 colon = tested on: KM20L2 colon
HCC-2998 colon = tested on: HCC-2998 colon
HOP-18 NSCLC = tested on: HOP-18 NSCLC
MOLT-4 leukemia = tested on: MOLT-4 leukemia
RXF 393 renal = tested on: RXF 393 renal
OVCAR-3 ovarian = tested on: OVCAR-3 ovarian
SW-620 colon = tested on: SW-620 colon
UO-31 renal = tested on: UO-31 renal
UACC-62 melanoma = tested on: UACC-62 melanoma
CCRF-CEM leukemia = tested on: CCRF-CEM leukemia
K-562 leukemia = tested on: K-562 leukemia
U251 CNS = tested on: U251 CNS
SNB-75 CNS = tested on: SNB-75 CNS
A549 NSCLC = tested on: A549 NSCLC
SF-268 CNS = tested on: SF-268 CNS
SK-OV-3 ovarian = tested on: SK-OV-3 ovarian
SK-MEL-2 melanoma = tested on: SK-MEL-2 melanoma
DMS 114 small cell lung = tested on: DMS 114 small cell lung
OVCAR-8 ovarian = tested on: OVCAR-8 ovarian
HL-60(TB) leukemia = tested on: HL-60(TB) leukemia
NCI-H522 lung = tested on: NCI-H522 lung
HT29 colon = tested on: HT29 colon
ACHN renal = tested on: ACHN renal
SF-295 CNS = tested on: SF-295 CNS
TK-10 renal = tested on: TK-10 renal
SK-MEL-28 melanoma = tested on: SK-MEL-28 melanoma
HOP-92 NSCLC = tested on: HOP-92 NSCLC
786-0 renal = tested on: 786-0 renal
M19-MEL melanoma = tested on: M19-MEL melanoma
HOP-62 NSCLC = tested on: HOP-62 NSCLC
LOX IMVI melanoma = tested on: LOX IMVI melanoma
KM12 colon = tested on: KM12 colon
XF 498 CNS = tested on: XF 498 CNS
EKVX NSCLC = tested on: EKVX NSCLC
RPMI-8226 leukemia = tested on: RPMI-8226 leukemia
UACC-257 melanoma = tested on: UACC-257 melanoma
OVCAR-4 ovarian = tested on: OVCAR-4 ovarian
HCT-15 colon = tested on: HCT-15 colon
SK-MEL-5 melanoma = tested on: SK-MEL-5 melanoma
CAKI-1 renal = tested on: CAKI-1 renal
OVCAR-5 ovarian = tested on: OVCAR-5 ovarian

Measured: TGI

Cc1nc2nnc(C)n2c2c1C(=O)Nc1ccccc1N2
not listed: OVCAR-4 ovarian | HCT-15 colon | SK-MEL-5 melanoma | CAKI-1 renal | OVCAR-5 ovarian
> 100 µM: all other assays above

CC(=O)OCCc1cccnc1/C=N/O
not listed: RPMI-8226 leukemia
> 100 µM: all other assays above

O=c1[nH]c(=O)n(C2CC(O)C(CO)O2)cc1C#Cc1c(F)c(F)c(F)c(F)c1F (stereo unspecified)
not listed: SNB-78 CNS | IGROV1 ovarian | HOP-18 NSCLC | RXF 393 renal | HL-60(TB) leukemia | NCI-H522 lung | TK-10 renal | HOP-92 NSCLC | XF 498 CNS
> 100 µM: all other assays above
